# Earlier results, collected in patent US20220235034A1, “SELECTIVE HISTAMINE H3 RECEPTOR ANTAGONISTS FOR TREATING AUTISM SPECTRUM DISORDER” (RICHTER GEDEON NYRT., priority 2019, published 2022).
# Assays:
# histamine H3 receptor [1] = target: T1, histamine H3 receptor (Homo sapiens, UniProt Q9Y5N1); conditions: according to WO 2014/136075A1; cited from earlier work
# histamine H3 receptor [2] = target: T1, histamine H3 receptor; conditions: cited from earlier work
# histamine H3 receptor [3] = target: T2, histamine H3 receptor (Rattus norvegicus, UniProt Q9QYN8); conditions: in vivo in rats; cited from earlier work
# T2 construct: from tissue; host or cells: living rat (in vivo)
# [4] = system: prenatally VPA-exposed mice; conditions: cited from earlier work
# [5] = target: T3, human monoamine oxidase A (Homo sapiens, UniProt P21397); conditions: cited from earlier work
# T3 sequence (P21397 1-527): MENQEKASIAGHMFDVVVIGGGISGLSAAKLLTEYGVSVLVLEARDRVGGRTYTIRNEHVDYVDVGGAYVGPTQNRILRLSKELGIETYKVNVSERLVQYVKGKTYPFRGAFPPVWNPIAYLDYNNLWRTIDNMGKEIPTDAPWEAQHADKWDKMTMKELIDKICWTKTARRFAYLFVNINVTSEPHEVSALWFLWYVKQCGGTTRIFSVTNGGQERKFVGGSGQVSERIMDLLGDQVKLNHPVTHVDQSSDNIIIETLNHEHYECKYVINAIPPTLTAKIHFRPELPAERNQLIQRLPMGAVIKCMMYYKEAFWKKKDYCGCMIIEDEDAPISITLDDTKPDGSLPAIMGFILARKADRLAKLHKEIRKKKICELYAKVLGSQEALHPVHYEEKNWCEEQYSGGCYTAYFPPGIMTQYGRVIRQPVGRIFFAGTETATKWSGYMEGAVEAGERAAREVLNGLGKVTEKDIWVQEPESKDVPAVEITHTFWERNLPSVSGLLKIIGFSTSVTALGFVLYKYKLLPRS
# [6] = target: T4, human monoamine oxidase B (Homo sapiens, UniProt P27338); conditions: cited from earlier work
# T4 sequence (P27338 1-520): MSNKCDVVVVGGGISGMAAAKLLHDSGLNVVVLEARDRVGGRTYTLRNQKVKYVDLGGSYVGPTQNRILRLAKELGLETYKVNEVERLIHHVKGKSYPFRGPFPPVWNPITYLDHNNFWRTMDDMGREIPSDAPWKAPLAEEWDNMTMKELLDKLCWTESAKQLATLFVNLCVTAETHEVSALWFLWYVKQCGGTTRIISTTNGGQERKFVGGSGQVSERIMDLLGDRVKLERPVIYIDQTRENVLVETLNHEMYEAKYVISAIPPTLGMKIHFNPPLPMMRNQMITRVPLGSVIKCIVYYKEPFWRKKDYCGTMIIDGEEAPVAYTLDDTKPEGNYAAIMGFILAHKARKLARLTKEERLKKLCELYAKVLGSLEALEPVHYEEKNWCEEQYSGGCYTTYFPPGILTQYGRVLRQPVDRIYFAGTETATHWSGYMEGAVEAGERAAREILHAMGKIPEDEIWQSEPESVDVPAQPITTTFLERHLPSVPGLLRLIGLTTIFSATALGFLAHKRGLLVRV
# rat monoamine oxidase A = target: T5, rat monoamine oxidase A (Rattus norvegicus, UniProt P21396); conditions: cited from earlier work
# T5 sequence (P21396 1-526): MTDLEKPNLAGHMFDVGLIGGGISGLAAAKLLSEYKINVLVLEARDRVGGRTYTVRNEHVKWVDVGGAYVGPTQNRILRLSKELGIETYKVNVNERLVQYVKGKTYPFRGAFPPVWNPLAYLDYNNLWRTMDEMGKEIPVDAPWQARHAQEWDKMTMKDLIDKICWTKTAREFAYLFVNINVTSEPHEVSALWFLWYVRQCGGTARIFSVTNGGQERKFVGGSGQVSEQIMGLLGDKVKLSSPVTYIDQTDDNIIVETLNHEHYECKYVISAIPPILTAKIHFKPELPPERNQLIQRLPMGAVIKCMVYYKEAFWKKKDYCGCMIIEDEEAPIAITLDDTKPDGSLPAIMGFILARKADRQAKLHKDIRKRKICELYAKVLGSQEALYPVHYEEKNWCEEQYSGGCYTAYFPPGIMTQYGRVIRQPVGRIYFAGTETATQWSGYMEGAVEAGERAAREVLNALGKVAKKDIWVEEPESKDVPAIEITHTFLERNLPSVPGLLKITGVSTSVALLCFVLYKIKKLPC
# rat monoamine oxidase B = target: T6, rat monoamine oxidase B (Rattus norvegicus, UniProt P19643); conditions: cited from earlier work
# T6 sequence (P19643 1-520): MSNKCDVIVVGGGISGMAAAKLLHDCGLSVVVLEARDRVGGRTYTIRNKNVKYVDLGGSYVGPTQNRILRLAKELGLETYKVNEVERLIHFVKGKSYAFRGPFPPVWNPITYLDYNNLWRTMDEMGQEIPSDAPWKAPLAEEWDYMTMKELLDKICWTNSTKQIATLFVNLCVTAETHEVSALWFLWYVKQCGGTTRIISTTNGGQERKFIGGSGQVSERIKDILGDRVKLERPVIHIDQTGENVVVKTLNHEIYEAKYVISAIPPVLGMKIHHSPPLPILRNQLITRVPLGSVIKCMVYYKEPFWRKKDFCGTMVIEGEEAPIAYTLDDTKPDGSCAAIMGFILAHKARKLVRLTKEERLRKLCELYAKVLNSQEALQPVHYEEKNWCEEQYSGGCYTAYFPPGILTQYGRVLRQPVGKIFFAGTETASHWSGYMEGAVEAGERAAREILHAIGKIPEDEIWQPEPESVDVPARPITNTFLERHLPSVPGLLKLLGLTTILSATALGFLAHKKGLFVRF
# [7] = 3 mg/kg intraperitoneally; cited from earlier work
# prenatal VPA model = conditions: in vivo; cited from earlier work
# ASD subjects = conditions: humans; cited from earlier work
# [8] = 3 mg/kg intraperitoneally, prenatal valproate model in mice
# T1 sequence (Q9Y5N1 whole entry, species assumed): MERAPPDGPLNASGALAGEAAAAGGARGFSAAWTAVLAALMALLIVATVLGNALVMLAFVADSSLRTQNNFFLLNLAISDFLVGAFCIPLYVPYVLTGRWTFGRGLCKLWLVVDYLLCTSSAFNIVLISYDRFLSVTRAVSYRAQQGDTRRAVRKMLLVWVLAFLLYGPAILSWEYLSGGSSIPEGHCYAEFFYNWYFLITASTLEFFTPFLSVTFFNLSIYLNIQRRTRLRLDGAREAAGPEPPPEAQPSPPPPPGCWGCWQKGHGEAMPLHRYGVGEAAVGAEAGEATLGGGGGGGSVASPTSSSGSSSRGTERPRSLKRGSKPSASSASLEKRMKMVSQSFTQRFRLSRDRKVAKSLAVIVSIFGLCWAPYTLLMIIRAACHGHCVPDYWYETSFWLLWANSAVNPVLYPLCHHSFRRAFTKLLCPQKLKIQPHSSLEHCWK
# T2 sequence (Q9QYN8 whole entry): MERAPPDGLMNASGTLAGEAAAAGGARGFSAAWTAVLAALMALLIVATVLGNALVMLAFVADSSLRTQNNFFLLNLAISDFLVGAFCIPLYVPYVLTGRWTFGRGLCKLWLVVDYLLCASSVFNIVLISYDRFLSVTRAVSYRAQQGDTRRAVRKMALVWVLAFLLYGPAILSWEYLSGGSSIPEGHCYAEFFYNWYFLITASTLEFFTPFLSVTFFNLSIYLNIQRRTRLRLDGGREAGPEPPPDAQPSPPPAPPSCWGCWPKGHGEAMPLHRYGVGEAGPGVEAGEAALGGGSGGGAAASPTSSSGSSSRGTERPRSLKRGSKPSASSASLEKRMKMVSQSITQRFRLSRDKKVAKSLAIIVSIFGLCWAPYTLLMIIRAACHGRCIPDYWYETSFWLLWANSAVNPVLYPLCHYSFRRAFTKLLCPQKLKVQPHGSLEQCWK
smiles,measurement,setting,value
"CC(=O)N1CCC(Oc2ccc(OCCCN3CCC[C@H]3C)cc2)CC1 [Compound of Formula 1, 1-[4-(4-{3-[(2R)-2-methylpyrrolidin-1-yl]-propoxy}-phenoxy)-piperidin-1-yl]-ethan-1-on]",affinity for histamine H3 receptor,histamine H3 receptor [1],high affinity
same,selectivity for histamine H3 receptor,histamine H3 receptor [1],highly selective
same,functional behaviour in vitro,histamine H3 receptor [2],receptor antagonist/inverse agonist
same,histamine H3 receptor antagonism in vivo,histamine H3 receptor [3],shows histamine H3 receptor antagonism in vivo
O=C(c1ccc(OCCCc2cnc[nH]2)cc1)C1CC1 [ciproxifan],excessive repetitive behavior,[4]; [8],improved
same,social deficits,[4]; [8],improved
same,social novelty preference,[4]; prenatally VPA-exposed mice,did not have an effect
same,"inhibition of monoamine oxidase A, concentration range",[5],micromolar concentration range
same,preference between monoamine oxidase A and B,[6]; human and rat enzymes,slight preference for monoamine oxidase B
same,"inhibition of monoamine oxidase B, concentration range",[6]; human,micromolar concentration range
same,"inhibition of monoamine oxidase A, concentration range",rat monoamine oxidase A,micromolar concentration range
same,"inhibition of monoamine oxidase B, concentration range",rat monoamine oxidase B,micromolar concentration range
same,plasma exposures,[7],micromolar range
CC[C@H](C)[C@@H]1NC(=O)[C@H](Cc2ccc(O)cc2)NC(=O)[C@@H](N)CSSC[C@@H](C(=O)N2CCC[C@H]2C(=O)N[C@@H](CC(C)C)C(=O)NCC(N)=O)NC(=O)[C@H](CC(N)=O)NC(=O)[C@H](CCC(N)=O)NC1=O [oxytocin],behavioral impairments in the prenatal VPA model,prenatal VPA model,improve behavioral impairments
same,efficacy signals in ASD subjects,ASD subjects,produced efficacy signals
